From US20260092057A1, “BCL-XL/BCL-2 DEGRADERS AND USES THEREOF” (Kymera Therapeutics, Inc., priority 2022, published 2026)
pIC50: −log10 of the molar value. Where two headings read alike, the source gives them in different places.

Legend:
Type in all cases: cell-based
Caki-2 cells = assay: CTG (CellTiter-Glo) cell viability assay, Caki-2; details: Caki-2, 3-day, read-out: CTG Chempartner/PHA- Caki-2 3-day: Average external-IC50
In short: (§1)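 Cells seeded at 10,000 per well, then exposed to a 9-point 1:3 dilution series from 10 µM top concentration (0.2% DMSO) for 3 days at 37 °C, 5% CO2. Viability measured by CellTiter-Glo luminescence; IC50 from a three-parameter logistic fit.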

BCL-XL = molecular target: T1, BCL-XL (Homo sapiens, UniProt Q07817); assay: BCL-XL degradation assay in MOLT-4 cells (ELISA, 6 h); details: for DC50: read-out: Bcl-xL ELISA in MOLT-4 degradation 6 h: External Abs-DC50
T1 construct: BCL-XL degradation results in MOLT-4 cells for compounds of the invention; endogenous in cells; host or cells: MOLT-4

MOLT-4 cells = assay: CTG (CellTiter-Glo) cell viability assay, MOLT-4; details: MOLT-4, 3 day, read-out: CTG Cell Viability Assay - MOLT-4 3 day: Average external-IC50
In short: as §1

T1 sequence (Q07817 whole entry): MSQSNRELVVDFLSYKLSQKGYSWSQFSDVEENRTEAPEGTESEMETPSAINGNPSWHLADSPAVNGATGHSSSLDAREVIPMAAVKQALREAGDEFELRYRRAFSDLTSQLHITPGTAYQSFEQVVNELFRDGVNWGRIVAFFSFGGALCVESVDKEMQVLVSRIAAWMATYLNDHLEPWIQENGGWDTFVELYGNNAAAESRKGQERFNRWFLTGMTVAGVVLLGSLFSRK

Structure (SMILES) | pIC50 (Caki-2 cells; Homo sapiens, CAKI-2, 72 h) | Dmax (BCL-XL) | DC50 (BCL-XL) | pIC50 (MOLT-4 cells; Homo sapiens, MOLT-4, 72 h) | pIC50 (Caki-2 cells) | Bcl-xL ELISA in MOLT-4 degradation 6 h: Dmax % (BCL-XL) | pIC50 (MOLT-4 cells)
Cc1ncsc1-c1ccc([C@H](C)NC(=O)[C@@H]2C[C@@H](O)CN2C(=O)[C@@H](NC(=O)CCCCCN2CCN(CCCNc3ccc(S(=O)(=O)NC(=O)c4ccc(N5CCN(CC6=C(c7ccc(Cl)cc7)CC(C)(C)CC6)CC5)cc4Oc4cnc5[nH]ccc5c4)cc3S(=O)(=O)C(F)(F)F)CC2)C(C)(C)C)cc1 [I-74] | < 4.52 | < 50% | 500 to 1000 nM | 6.00 to 7.00 | – | – | –
Cc1ncsc1-c1ccc([C@H](C)NC(=O)[C@@H]2C[C@@H](O)CN2C(=O)[C@@H](NC(=O)CCCCCCC(=O)N2CCN(CCCNc3ccc(S(=O)(=O)NC(=O)c4ccc(N5CCN(CC6=C(c7ccc(Cl)cc7)CC(C)(C)CC6)CC5)cc4Oc4cnc5[nH]ccc5c4)cc3S(=O)(=O)C(F)(F)F)CC2)C(C)(C)C)cc1 [I-81] | < 4.52 | > 75% | 10 to 100 nM | > 7.00 | – | – | –
C#Cc1ccc([C@H](C)NC(=O)[C@@H]2C[C@@H](O)CN2C(=O)[C@@H](NC(=O)CCCCCC(=O)N2CCN(CCCNc3ccc(S(=O)(=O)NC(=O)c4ccc(N5CCN(CC6=C(c7ccc(Cl)cc7)CC(C)(C)CC6)CC5)cc4Oc4cnc5[nH]ccc5c4)cc3S(=O)(=O)C(F)(F)F)CC2)C(C)(C)C)cc1 [I-85] | < 4.52 | < 50% | 500 to 1000 nM | 6.00 to 7.00 | – | – | –
Cc1ncsc1-c1ccc([C@H](C)NC(=O)[C@@H]2C[C@@H](O)CN2C(=O)[C@@H](NC(=O)CCCCCCCC(=O)N2CCN(CCCNc3ccc(S(=O)(=O)NC(=O)c4ccc(N5CCN(CC6=C(c7ccc(Cl)cc7)CC(C)(C)CC6)CC5)cc4Oc4cnc5[nH]ccc5c4)cc3S(=O)(=O)C(F)(F)F)CC2)C(C)(C)C)cc1 [I-86] | < 4.52 | 50 to 75% | 10 to 100 nM | 6.00 to 7.00 | – | – | –
C#Cc1ccc([C@H](CO)NC(=O)[C@@H]2C[C@@H](O)CN2C(=O)[C@@H](NC(=O)CCCCCC(=O)N2CCN(CCCNc3ccc(S(=O)(=O)NC(=O)c4ccc(N5CCN(CC6=C(c7ccc(Cl)cc7)CC(C)(C)CC6)CC5)cc4Oc4cnc5[nH]ccc5c4)cc3S(=O)(=O)C(F)(F)F)CC2)C(C)(C)C)cc1 [I-102] | < 4.52 | > 75% | < 10 nM | > 7.00 | – | – | –
C#Cc1ccc([C@H](C)NC(=O)[C@@H]2C[C@@H](O)CN2C(=O)[C@@H](NC(=O)CCCCCC(=O)N2CCN(CCCNc3ccc(S(=O)(=O)NC(=O)c4ccc(N5CCN(CC6=C(c7ccc(Cl)cc7)CC(C)(C)CC6)CC5)cc4Oc4cnc5[nH]ccc5c4)cc3S(=O)(=O)C(F)(F)F)CC2)C(C)(C)C)cc1F [I-105] | < 4.52 | 50 to 75% | 100 to 500 nM | 6.00 to 7.00 | – | – | –
Cc1ncsc1-c1ccc([C@H](C)NC(=O)[C@@H]2C[C@@H](O)CN2C(=O)[C@@H](NC(=O)CCCCCC(=O)N2CCCN(CCCNc3ccc(S(=O)(=O)NC(=O)c4ccc(N5CCN(CC6=C(c7ccc(Cl)cc7)CC(C)(C)CC6)CC5)cc4Oc4cnc5[nH]ccc5c4)cc3S(=O)(=O)C(F)(F)F)CC2)C(C)(C)C)cc1 [I-106] | < 4.52 | 50 to 75% | 10 to 100 nM | > 7.00 | – | – | –
Cc1ncsc1-c1ccc([C@H](C)NC(=O)[C@@H]2C[C@@H](O)CN2C(=O)[C@@H](NC(=O)CCCCCCN(C)CC[C@H](CSc2ccccc2)Nc2ccc(S(=O)(=O)NC(=O)c3ccc(N4CCC([C@@H](O)c5ccccc5-c5ccc(Cl)cc5)CC4)cc3)cc2S(=O)(=O)C(F)(F)F)C(C)(C)C)cc1 [I-108] | < 4.52 | 50 to 75% | 10 to 100 nM | > 7.00 | – | – | –
Cc1ncsc1-c1ccc([C@H](C)NC(=O)[C@@H]2C[C@@H](O)CN2C(=O)[C@@H](NC(=O)CCCCC(=O)N2CCN(CC[C@H](CSc3ccccc3)Nc3ccc(S(=O)(=O)NC(=O)c4ccc(N5CCC([C@@H](O)c6ccccc6-c6ccc(Cl)cc6)CC5)cc4)cc3S(=O)(=O)C(F)(F)F)CC2)C(C)(C)C)cc1 [I-109] | < 4.52 | > 75% | 10 to 100 nM | 6.00 to 7.00 | – | – | –
Cc1ncsc1-c1ccc([C@H](C)NC(=O)[C@@H]2C[C@@H](O)CN2C(=O)[C@@H](NC(=O)CCCCCCN2CCN(CC[C@H](CSc3ccccc3)Nc3ccc(S(=O)(=O)NC(=O)c4ccc(N5CCC([C@@H](O)c6ccccc6-c6ccc(Cl)cc6)CC5)cc4)cc3S(=O)(=O)C(F)(F)F)CC2)C(C)(C)C)cc1 [I-118] | < 4.52 | > 75% | 10 to 100 nM | 6.00 to 7.00 | – | – | –
Cc1ncsc1-c1ccc([C@H](C)NC(=O)[C@@H]2C[C@@H](O)CN2C(=O)[C@@H](NC(=O)CCCCCCC(=O)N2CCN(CC[C@H](CSc3ccccc3)Nc3ccc(S(=O)(=O)NC(=O)c4ccc(N5CCC([C@@H](O)c6ccccc6-c6ccc(Cl)cc6)CC5)cc4)cc3S(=O)(=O)C(F)(F)F)CC2)C(C)(C)C)cc1 [I-120] | 4.52 to 5.00 | 50 to 75% | 10 to 100 nM | > 7.00 | – | – | –
Cc1ncsc1-c1ccc([C@H](C)NC(=O)[C@@H]2C[C@@H](O)CN2C(=O)[C@@H](NC(=O)CCCCCC(=O)N2CCN(CC[C@H](CSc3ccccc3)Nc3ccc(S(=O)(=O)NC(=O)c4ccc(N5CCN([C@@H](O)c6ccccc6-c6ccc(Cl)cc6)CC5)cc4)cc3S(=O)(=O)C(F)(F)F)CC2)C(C)(C)C)cc1 [I-121] | 4.52 to 5.00 | > 75% | < 10 nM | > 7.00 | – | – | –
Cc1ncsc1-c1ccc([C@H](C)NC(=O)[C@@H]2C[C@@H](O)CN2C(=O)[C@@H](NC(=O)CCCCCC(=O)N2CCCN(CC[C@H](CSc3ccccc3)Nc3ccc(S(=O)(=O)NC(=O)c4ccc(N5CCN([C@@H](O)c6ccccc6-c6ccc(Cl)cc6)CC5)cc4)cc3S(=O)(=O)C(F)(F)F)CC2)C(C)(C)C)cc1 [I-124] | 4.52 to 5.00 | 50 to 75% | < 10 nM | > 7.00 | – | – | –
Cc1ncsc1-c1ccc(CNC(=O)[C@@H]2C[C@@H](O)CN2C(=O)[C@@H](NC(=O)CCCCCC(=O)N2CC3(CN(CC[C@H](CSc4ccccc4)Nc4ccc(S(=O)(=O)NC(=O)c5ccc(N6CCN([C@@H](O)c7ccccc7-c7ccc(Cl)cc7)CC6)cc5)cc4S(=O)(=O)C(F)(F)F)C3)C2)C(C)(C)C)cc1 [I-125] | < 4.52 | 50 to 75% | 10 to 100 nM | 6.00 to 7.00 | – | – | –
Cc1ncsc1-c1ccc([C@H](C)NC(=O)[C@@H]2C[C@@H](O)CN2C(=O)[C@@H](NC(=O)CCCCC(=O)N2CCC3(CCN(CC[C@H](CSc4ccccc4)Nc4ccc(S(=O)(=O)NC(=O)c5ccc(N6CCN([C@@H](O)c7ccccc7-c7ccc(Cl)cc7)CC6)cc5)cc4S(=O)(=O)C(F)(F)F)CC3)CC2)C(C)(C)C)cc1 [I-126] | > 5.30 | 50 to 75% | 10 to 100 nM | > 7.00 | – | – | –
Cc1ncsc1-c1ccc([C@H](C)NC(=O)[C@@H]2C[C@@H](O)CN2C(=O)[C@@H](NC(=O)CCCCCC(=O)N2CCC(NCC[C@H](CSc3ccccc3)Nc3ccc(S(=O)(=O)NC(=O)c4ccc(N5CCN([C@@H](O)c6ccccc6-c6ccc(Cl)cc6)CC5)cc4)cc3S(=O)(=O)C(F)(F)F)CC2)C(C)(C)C)cc1 [I-127] | < 4.52 | 50 to 75% | 500 to 1000 nM | < 5.52 | – | – | –
Cc1ncsc1-c1ccc(CNC(=O)[C@@H]2C[C@@H](O)CN2C(=O)[C@@H](NC(=O)CCCCCCC(=O)N2CCN(C[C@]3(C)CCC(c4ccc(Cl)cc4)=C(CN4CCN(c5ccc(C(=O)NS(=O)(=O)c6ccc(NCCCN7CCOCC7)c(S(=O)(=O)C(F)(F)F)c6)c(Oc6cnc7[nH]ccc7c6)c5)CC4)C3)CC2)C(C)(C)C)cc1 [I-131] | – | < 50% | 500 to 1000 nM | 6.00 to 7.00 | < 4.52 | – | –
Cc1ncsc1-c1ccc([C@H](C)NC(=O)[C@@H]2C[C@@H](O)CN2C(=O)[C@@H](NC(=O)CCCCCC(=O)N2CCN(CCCNc3ccc(S(=O)(=O)NC(=O)c4ccc(N5CCN(CC6=C(c7ccc(Cl)cc7)CC(C)(C)CC6)CC5Oc5cnc6[nH]ccc6c5)cc4)cc3S(=O)(=O)C(F)(F)F)CC2)C(C)(C)C)cc1 (stereo partly shown) [I-133] | < 4.52 | < 50% | 500 to 1000 nM | 6.00 to 7.00 | – | – | –
Cc1ncsc1-c1ccc(CNC(=O)[C@@H]2C[C@@H](O)CN2C(=O)[C@@H](NC(=O)CCCCCCC(=O)N2CCN(C[C@]3(C)CCC(c4ccc(Cl)cc4)=C(CN4CCN(c5ccc(C(=O)NS(=O)(=O)c6ccc(NCCCN7CCOCC7)c(S(=O)(=O)C(F)(F)F)c6)c(Oc6cnc7[nH]ccc7c6)c5)CC4)C3)CC2)C(C)(C)C)cc1 [I-134] | – | – | 500 to 1000 nM | – | > 5.30 | C (C (<50%)) | 6.00 to 7.00
